Experiments:
[1] = system: γ-glutamyl-cysteine synthetase (GCS) catalytic and regulatory subunits; test: Western blot of GCS subunits in HT-22 cells; type: cell-based, mouse; details: compound 24 h before glutamate or H2O2, also independent of glutamate
Procedure: Determining γ-glutamylcysteine synthetase (“GCS”) protein levels was determined using Western blotting analysis, as shown in FIGS. 28 and 29. Antibodies against the heavy (catalytic) and light (regulatory) subunits, GCSH and GCSL, respectively, were ordered from Santa Cruz Biotechnology, Santa Cruz, Calif. Anti-β-actin polyclonal antibody was obtained from Biomedical Technologies Inc. (Stoughton, Mass.). Cyclopentenone PGs treated and untreated HT-22, C6, and RGC-5 cells were homogenized in a buffer containing 20 mM HEPES, pH 7.4, 2 mM […], 1 mM EGTA, […], 2 mm DTE, and […] aprotonin. Cells were sonicated to disrupt cell membranes, and Triton X-100 was added to a final concentration of 0.05% to solubilize membrane bound proteins. Equal amounts of proteins, as determined by the Bradford method, were separated by SDS-PAGE and transferred to polyvinylidene fluoride membrane (Millipore, Bedford, Mass.) in a BiORad (Hercules, Calif.) trans-Blot electrophoresis apparatus at 100 V for 2 hr using Towbin's buffer [25 mm Tris, pH 8.3, 192 mM glycine, and 20% methanol]. […] Equal amounts of proteins, as determined by the Bradford method, were separated by SDS-PAGE and transferred to PVDF membrane. […] […]

HT-22 cells = test: HT-22 cell viability during BSO exposure; type: cell-based, mouse
Procedure: (§1) The in vitro model used for oxidative cell death was based upon glutamate, hydrogen peroxide, and buthionine sulfoximine (“BSO”) administration to HT-22 mouse hippocampal, C6 rat glioma, and RGC-5 retinal ganglion cell lines. The ease that the above cell lines are cultured is well known in the art of cell culture. Additionally, these cell lines are suitable for screening a various number of compounds described in the present invention.
(§2) Although not wanting to be bound by theory, the toxicity of glutamate in HT-22 (32) and C6 glioma (33) cell lines is mediated through oxidative stress. HT-22 cells lack ionotropic N-methyl-D-aspartate (“NMDA”) glutamate receptors, and the glutamate-induced cell death appears to occur via a slow onset oxidative stress (32,34,35). Glutamate blocks cystine uptake by inhibiting the glutamate/cystine antiporter in both HT-22 (32) and C6 glioma (33) cell lines. […] In some of the experiments, the viability of cells was determined using 2.5 μM calcein AM assay in phosphate-buffered saline (PBS 1×). After 25 minutes of incubation, live cells were distinguished by the presence of intracellular esterase activity, which cleaves the calcein AM dye, producing a bright green fluorescence, as shown in FIG. 22. Viability was measured in Relative Fluorescent Units (“RFU”), and expressed as percentage of vehicle-treated control values. […]

RGC-5 cells = test: RGC-5 cell viability during BSO exposure; type: cell-based
Procedure: as §1, §2

Row | SMILES | expression of catalytic (C) and regulatory (R) subunits of GCS [1] | protection against BSO (HT-22 cells) | protection against BSO (RGC-5 cells)
1 | CCCCC/C=C/C=C1/C(=O)C=C[C@@H]1C/C=C\CCCC(=O)O [15d-PGJ2, 15-deoxy-Δ^12,14-PGJ2] | upregulates | – | –
2 | Cc1c(C)c2c(c(C)c1O)CCC(C)(COc1ccc(CC3SC(=O)NC3=O)cc1)O2 (stereo not drawn) [troglitazone] | – | protected | protected
